Among the data in ChEMBL document CHEMBL1137099, “Synthesis of novel rhinacanthins and related anticancer naphthoquinone esters” (J Med Chem, 2004) are IC50 values, retold here.

SMILES strings stand for the structures.

Holding throughout (assay type): functional, cell-based
One experiment relates to HeLa. As to the kind of experiment: Concentration required to inhibit growth of human cervical carcinoma (HeLa) cell line.
In the next experiment the test system is KB. As to the kind of experiment: Concentration required to inhibit growth of human epidermoid carcinoma (KB) cell line.
The subject of the next experiment is Vero. The experiment is described as follows: Concentration required to inhibit growth of african green monkey kidney cell line. Conditions: Chlorocebus sabaeus.
In a further experiment the test system is HepG2. As to the kind of experiment: Concentration required to inhibit growth of human hepatocellular carcinoma (HepG2) cell line.

In general, IC50 refers to the midpoint of a concentration-inhibition curve. With `COc1cc(C(=O)OCC(C)CC2=C(O)C(=O)c3ccccc3C2=O)c(O)c2ccccc12` (centres undefined), the IC50 was 2.83 µM in the experiment on HeLa, 2.16 µM in the experiment on KB, less than 0.22 µM in the experiment on Vero and 3.14 µM with HepG2.

Turning to `COc1cc(C(=O)OCC(C)(C)CC2=C(O)C(=O)c3ccccc3C2=O)c(OC)c2ccccc12`, the half-maximal inhibitory concentration (IC50) with HeLa worked out at 1.09 µM; in the experiment with KB, 0.35 µM; in the experiment with Vero it was 32.7 µM; in the experiment with HepG2, 0.97 µM.

`CC(C)(COC(=O)c1ccccc1O)CC1=C(O)C(=O)c2ccccc2C1=O`: the IC50 with HeLa is 4.34 µM; in the experiment with KB, 4.65 µM; with Vero, greater than 136 µM; in the experiment with HepG2 it was 5.44 µM.

For the molecule `COc1ccc(OC)c(C(=O)OCC(C)CC2=C(O)C(=O)c3ccccc3C2=O)c1` (centres undefined), the IC50 was 41.9 µM in the experiment with HeLa, 37.6 µM with KB, 4.05 µM in the experiment on Vero and 53.1 µM with HepG2.

Take `COc1cc(C(=O)OCC(C)CC2=C(O)C(=O)c3ccccc3C2=O)c(OC)c2ccccc12` (centres undefined): the IC50 in the experiment with HeLa was found to be 3.8 µM; in the experiment with KB it was 3.52 µM; in the experiment on Vero it was 5.91 µM; in the experiment with HepG2, 3.65 µM.

As to `CC(C)(COC(=O)c1ccc2ccccc2c1O)CC1=CC(=O)c2ccccc2C1=O`, the IC50 in the experiment on HeLa was found to be 45.9 µM; in the experiment on KB it was 38.2 µM; with Vero it was 90.8 µM; in the experiment on HepG2, 48.3 µM.

In the case of `CC(COC(=O)c1ccc2ccccc2c1)CC1=CC(=O)c2ccccc2C1=O` (centres undefined), the IC50 was 38.2 µM with HeLa, 29 µM in the experiment on KB, 43.4 µM in the experiment on Vero and 27.3 µM in the experiment on HepG2.

Take `COC1=C(CC(C)(C)COC(=O)c2cc(OC)ccc2OC)C(=O)c2ccccc2C1=O`: the IC50 came to 38.8 µM with HeLa, 14.9 µM in the experiment on KB, 13.4 µM with Vero and 40.7 µM with HepG2.

As to `CC(C)(COC(=O)c1ccc2ccccc2c1)CC1=C(O)C(=O)c2ccccc2C1=O`, the IC50 turned out to be 1.17 µM with HeLa, 1.59 µM with KB, 1.5 µM in the experiment on Vero and 1.3 µM in the experiment with HepG2.

As to `O=C1C(=O)c2ccccc2C(O)=C1CCCOC(=O)c1ccc2ccccc2c1`, the IC50 in the experiment with HeLa was 15.8 µM; in the experiment with KB, 14.4 µM; in the experiment with Vero, 24 µM; in the experiment on HepG2 it was 15.5 µM.

Turning to `COc1cc(C(=O)OCCCC2=CC(=O)c3ccccc3C2=O)c(O)c2ccccc12`, the IC50 was 45.4 µM with HeLa, 93.8 µM in the experiment with KB, 48.5 µM in the experiment on Vero and 64.4 µM in the experiment on HepG2.

Regarding `CC(COC(=O)c1ccc2ccccc2c1)CC1=C(O)C(=O)c2ccccc2C1=O` (centres undefined), the IC50 came to 4.25 µM with HeLa, 3.58 µM in the experiment on KB, 1.8 µM in the experiment with Vero and 3.7 µM in the experiment on HepG2.

For the molecule `CC(COC(=O)c1ccccc1)CC1=C(O)C(=O)c2ccccc2C1=O` (centres undefined), the IC50 in the experiment with HeLa stood at 4.76 µM; in the experiment on KB, 4.57 µM; with Vero it was 2.31 µM; in the experiment with HepG2, 8.43 µM.

Take `COc1ccc(O)c(C(=O)OCC(C)(C)CC2=C(O)C(=O)c3ccccc3C2=O)c1`: the IC50 with HeLa was 3.33 µM; with KB, 1.18 µM; in the experiment with Vero, 11.5 µM; in the experiment with HepG2 it was 1.61 µM.

On to `O=C1C(=O)c2ccccc2C(O)=C1CCCOC(=O)c1ccc2ccccc2c1O`, for which the IC50 in the experiment with HeLa is 15.1 µM; in the experiment on KB, 12.3 µM; with Vero it was 124 µM; with HepG2 it was 16.2 µM.

`CC(C)(COC(=O)c1cc(O)c2ccccc2c1O)CC1=C(O)C(=O)c2ccccc2C1=O`: the IC50 with HeLa turned out to be 12.4 µM; in the experiment with KB it was 4.22 µM; in the experiment with Vero it was 15.4 µM; with HepG2, 12.9 µM.

In the case of `COc1c(C(=O)OCC(C)CC2=CC(=O)c3ccccc3C2=O)ccc2ccccc12` (centres undefined), the IC50 in the experiment with HeLa is 39.5 µM; in the experiment on KB, 26.4 µM; with Vero it was 20.2 µM; with HepG2, 39.5 µM.

Consider `CC(C)(COC(=O)c1ccccc1)CC1=C(O)C(=O)c2ccccc2C1=O`, for which the IC50 is 3.02 µM with HeLa, 1.53 µM in the experiment on KB, 48.6 µM in the experiment with Vero and 4.85 µM with HepG2.

Regarding `COc1c(C(=O)OCC(C)CC2=C(O)C(=O)c3ccccc3C2=O)ccc2ccccc12` (centres undefined), the IC50 was 0.38 µM in the experiment with HeLa, 0.66 µM in the experiment with KB, 0.97 µM in the experiment with Vero and 1.04 µM with HepG2.

With `COc1cc(C(=O)OCCCC2=C(O)C(=O)c3ccccc3C2=O)c(OC)c2ccccc12`, the IC50 in the experiment with HeLa was determined as 32.3 µM; with KB, 12.8 µM; in the experiment with Vero it was 75.4 µM; in the experiment with HepG2 it was 35.9 µM.

Take `CC(COC(=O)c1ccc2ccccc2c1O)CC1=CC(=O)c2ccccc2C1=O` (centres undefined): the IC50 with HeLa came to 46.2 µM; in the experiment on KB, 38.6 µM; in the experiment with Vero, 37.9 µM; in the experiment with HepG2 it was 42.1 µM.

Turning to `CC(COC(=O)c1ccc2ccccc2c1O)CC1=C(O)C(=O)c2ccccc2C1=O` (centres undefined), the IC50 in the experiment with HeLa was 3.97 µM; with KB, 1.06 µM; with Vero, 0.7 µM; with HepG2, 1 µM.

As to `COc1c(C(=O)OCCCC2=CC(=O)c3ccccc3C2=O)ccc2ccccc12`, the IC50 in the experiment on HeLa was 47.5 µM; in the experiment with KB, 50 µM; in the experiment on Vero, 40 µM; in the experiment with HepG2 it was 54.2 µM.

Take `COc1cc(C(=O)OCC(C)(C)CC2=C(O)C(=O)c3ccccc3C2=O)c(O)c2ccccc12`: the IC50 in the experiment on HeLa is 0.3 µM; in the experiment on KB, less than 0.22 µM; in the experiment on Vero, 12.7 µM; in the experiment on HepG2, 0.38 µM.

Regarding `CC(C)(COC(=O)c1cc(O)ccc1O)CC1=C(O)C(=O)c2ccccc2C1=O`, the IC50 in the experiment on HeLa was 45.5 µM; in the experiment on KB, 64.4 µM; with Vero it was 77 µM; in the experiment with HepG2, 47.6 µM.

For `COc1ccc(O)c(C(=O)OCC(C)CC2=C(O)C(=O)c3ccccc3C2=O)c1` (centres undefined), the IC50 in the experiment with HeLa stood at 4.55 µM; in the experiment on KB, 4.04 µM; in the experiment on Vero it was 14 µM; in the experiment on HepG2, 4.96 µM.

As for `CC(C)(COC(=O)c1ccc2ccccc2c1)CC1=CC(=O)c2ccccc2C1=O`, the IC50 with HeLa is 41.2 µM; in the experiment with KB, 32 µM; with Vero, 33.3 µM; in the experiment on HepG2, 45.2 µM.

`CC(COC(=O)c1ccccc1O)CC1=C(O)C(=O)c2ccccc2C1=O` (centres undefined): the IC50 in the experiment with HeLa was 10.3 µM; in the experiment on KB, 4.65 µM; in the experiment with Vero it was 75.9 µM; with HepG2, 11.6 µM.

For `COC1=C(CC(C)(C)COC(=O)c2ccc3ccccc3c2)C(=O)c2ccccc2C1=O`, the IC50 in the experiment with HeLa came out at 44.9 µM; in the experiment on KB, 91.5 µM; with Vero, 47.9 µM; with HepG2, 127 µM.

As to `COc1cc(C(=O)OCCCC2=C(O)C(=O)c3ccccc3C2=O)c(O)c2ccccc12`, the IC50 was found to be 4.24 µM in the experiment on HeLa, 4.09 µM with KB, 40.9 µM with Vero and 4.28 µM in the experiment on HepG2.

In the experiment with KB, `CC(C)(CO)CC1=C(O)C(=O)c2ccccc2C1=O` gave an IC50 of 11.2 µM.

Take `O=C(OCCCC1=CC(=O)c2ccccc2C1=O)c1ccc2ccccc2c1`: the IC50 in the experiment on HeLa amounted to 12.9 µM; with KB, 13.7 µM; in the experiment with Vero, 14.9 µM; in the experiment with HepG2, 10.2 µM.

For `COC1=C(CC(C)(C)COC(=O)c2ccc3ccccc3c2OC)C(=O)c2ccccc2C1=O`, the IC50 in the experiment on HeLa worked out at 9.47 µM; in the experiment with KB it was 10.1 µM; with Vero, 5.96 µM; in the experiment with HepG2, 11.5 µM.

Take `COc1ccccc1C(=O)OCC(C)CC1=C(O)C(=O)c2ccccc2C1=O` (centres undefined): the IC50 came out at 4.12 µM with HeLa, 1.64 µM in the experiment on KB, 29.8 µM in the experiment on Vero and 4.04 µM in the experiment with HepG2.

Take `CC(C)(COC(=O)c1ccc2ccccc2c1O)CC1=C(O)C(=O)c2ccccc2C1=O`: the IC50 was less than 0.23 µM with HeLa, less than 0.23 µM with KB, 1 µM with Vero and 0.32 µM with HepG2.

Consider `COc1c(C(=O)OCCCC2=C(O)C(=O)c3ccccc3C2=O)ccc2ccccc12`, for which the IC50 in the experiment on HeLa was 42.9 µM; in the experiment on KB it was 33.7 µM; in the experiment with Vero, 120 µM; in the experiment with HepG2, 45.7 µM.

For `CC(CO)CC1=C(O)C(=O)c2ccccc2C1=O` (centres undefined), in the experiment on KB, the IC50 was 59.4 µM.

On to `COc1c(C(=O)OCC(C)(C)CC2=CC(=O)c3ccccc3C2=O)ccc2ccccc12`, for which the IC50 in the experiment with HeLa amounted to 36.9 µM; in the experiment with KB, 12.5 µM; in the experiment with Vero, 30.4 µM; in the experiment with HepG2 it was 14.4 µM.

Take `COC1=C(CC(C)(C)COC(=O)c2ccccc2)C(=O)c2ccccc2C1=O`: the IC50 was 40.6 µM with HeLa, 43 µM in the experiment with KB, 34.8 µM in the experiment with Vero and 46.7 µM in the experiment on HepG2.

Regarding `O=C1C=C(CCCOC(=O)c2ccc3ccccc3c2O)C(=O)c2ccccc21`, the IC50 with HeLa, in the experiment with KB, in the experiment on Vero and in the experiment on HepG2 was greater than 259 µM each time.

Turning to `COc1c(C(=O)OCC(C)(C)CC2=C(O)C(=O)c3ccccc3C2=O)ccc2ccccc12`, the IC50 was 0.23 µM with HeLa, less than 0.22 µM in the experiment on KB, 17.6 µM in the experiment with Vero and 0.24 µM in the experiment with HepG2.

Take `COc1ccc(OC)c(C(=O)OCC(C)(C)CC2=C(O)C(=O)c3ccccc3C2=O)c1`: the IC50 in the experiment with HeLa was 3.42 µM; in the experiment with KB, 3.38 µM; in the experiment on Vero, 9.11 µM; in the experiment with HepG2, 3.54 µM.

Consider `COc1ccccc1C(=O)OCC(C)(C)CC1=C(O)C(=O)c2ccccc2C1=O`, for which the IC50 in the experiment with HeLa was 4.04 µM; in the experiment on KB, 1.86 µM; with Vero it was 8.98 µM; with HepG2, 4.72 µM.

Regarding `COc1cc(C(=O)OCCCC2=CC(=O)c3ccccc3C2=O)c(OC)c2ccccc12`, the IC50 in the experiment on HeLa, with KB, with Vero and in the experiment with HepG2 was greater than 233 µM each time.

As to `COc1cccc2c1C(=O)c1c(O)c3c(c(O)c1C2=O)C[C@@](O)(C(=O)CO)C[C@@H]3O[C@H]1C[C@H](N)[C@H](O)[C@H](C)O1` [DOXORUBICIN], the IC50 was 0.33 µM in the experiment on HeLa, 0.03 µM in the experiment on KB, 23.9 µM in the experiment on Vero and 0.4 µM in the experiment on HepG2.
